Source: the supplement of paper PMC10290057
Structures can show the parent of a compound that is named as a salt.

Experiments:
HCT116 [1] = assay: AC50 cell viability (CellTiter-Glo); higher = less potent; conditions: 48 h
HCT116 [2] = assay: efficacy (fitted maximal change in viability relative to DMSO control); higher = less cytotoxic (negative = loss of viability); conditions: 48 h
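For AC50 cell viability (CellTiter-Glo) in this document: HCT116 colorectal carcinoma cells screened at five concentrations per compound, luminescent viability scaled between DMSO wells and empty wells on each plate, curves fitted per compound.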
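For efficacy (fitted maximal change in viability relative to DMSO control) in this document: Luminescence-based viability readout, five doses per compound, normalized against on-plate DMSO and empty-well controls, followed by dose-response curve fitting for every drug.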

## CCC[S+]([O-])c1ccc2[nH]c(NC(=O)OC)nc2c1 (centres undefined) [Albendazole oxide]
HCT116 [1]
  AC50 cell viability: 13.2 µM
HCT116 [2]
  efficacy: -45.3%

## COc1cccc2c1C(=O)c1c(O)c3c(c(O)c1C2=O)C[C@@](O)(/C(CO)=N/NC(=O)CCCCCN1C(=O)C=CC1=O)C[C@@H]3O[C@H]1C[C@H](N)[C@H](O)[C@H](C)O1 [Aldoxorubicin hydrochlorid]
HCT116 [1]
  AC50 cell viability: 2.35 µM
HCT116 [2]
  efficacy: -73.6%

## COC1=CC=CC(=C1/C2=N/CC3=C(N=C(NC4=CC(=C(C=C4)C(O)=O)OC)N=C3)C5=CC=C(Cl)C=C25)F [Alisertib]
HCT116 [1]
  AC50 cell viability: 0.417 µM
HCT116 [2]
  efficacy: -41.5%

## O=C1c2cccc(O)c2C(=O)c2c(O)cc(CO)cc21 [Aloe-emodin]
HCT116 [1]
  AC50 cell viability: 11.8 µM
HCT116 [2]
  efficacy: -47.2%

## Cc1nc(NC(=O)N2CCC[C@H]2C(N)=O)sc1-c1ccnc(C(C)(C)C(F)(F)F)c1 [Alpelisib]
HCT116 [1]
  AC50 cell viability: 14.8 µM
HCT116 [2]
  efficacy: -64.3%

## CO[C@H]1/C=C\C=C(\C)C(=O)NC2=CC(=O)C(NCCN(C)C)=C(C[C@@H](C)C[C@H](OC)[C@H](O)[C@@H](C)/C=C(/C)[C@@H]1OC(N)=O)C2=O [Alvespimycin hydrochloride]
HCT116 [1]
  AC50 cell viability: 0.372 µM
HCT116 [2]
  efficacy: -92.8%

## CCN(CC)CCNC(=O)c1c(C)[nH]c(/C=C2/C(=O)Nc3ccc(-c4csc(-c5ccccc5)n4)cc32)c1C [Amcasertib]
HCT116 [1]
  AC50 cell viability: 20.9 µM
HCT116 [2]
  efficacy: -99.9%

## CCCCc1oc2ccccc2c1C(=O)c1cc(I)c(OCCN(CC)CC)c(I)c1 [Amiodarone hydrochloride]
HCT116 [1]
  AC50 cell viability: 23.5 µM
HCT116 [2]
  efficacy: -71.8%

## CCCCCCCOc1ccc(CCC(N)(CO)CO)cc1C(F)(F)F [Amiselimod hydrochloride]
HCT116 [1]
  AC50 cell viability: 10.5 µM
HCT116 [2]
  efficacy: -96.7%

## CN(C)CCN1C(=O)c2cccc3cc(N)cc(c23)C1=O [Amonafide]
HCT116 [1]
  AC50 cell viability: 4.17 µM
HCT116 [2]
  efficacy: -72.8%

## CC(=O)[C@]1(N)Cc2c(O)c3c(c(O)c2[C@@H](O[C@H]2C[C@H](O)[C@H](O)CO2)C1)C(=O)c1ccccc1C3=O [Amrubicin]
HCT116 [1]
  AC50 cell viability: 6.61 µM
HCT116 [2]
  efficacy: -75.8%

## COc1cc(N[S+](C)(=O)[O-])ccc1Nc1c2ccccc2nc2ccccc12 [Amsacrine]
HCT116 [1]
  AC50 cell viability: 11.8 µM
HCT116 [2]
  efficacy: -124%

## S=C(NCc1ccc2c(c1)OCO2)N1CCN(c2ncnc3c2oc2ccccc23)CC1 [Amuvatinib]
HCT116 [1]
  AC50 cell viability: 1.86 µM
HCT116 [2]
  efficacy: -38.8%

## C=C1CCC2[C@](C)(CO)C(O)CC[C@]2(C)C1C/C=C1/C(=O)OCC1O (some centres undefined) [Andrographolide]
HCT116 [1]
  AC50 cell viability: 7.42 µM
HCT116 [2]
  efficacy: -65.7%

## C=C1CC[C@@H]2[C@](C)(CO)[C@H](O)CC[C@@]2(C)[C@@H]1C/C=C1/C(=O)OC[C@H]1O [Andrographolide]
HCT116 [1]
  AC50 cell viability: 4.68 µM
HCT116 [2]
  efficacy: -68.1%

## COc1cc2c(Oc3ccc4[nH]c(C)cc4c3F)ccnc2cc1OCC1(N)CC1 [Anlotinib]
HCT116 [1]
  AC50 cell viability: 16.6 µM
HCT116 [2]
  efficacy: -112%

## Cc1cccc(/C=N/Nc2cc(N3CCOCC3)nc(OCCc3ccccn3)n2)c1 [Apilimod]
HCT116 [1]
  AC50 cell viability: 1.18 µM
HCT116 [2]
  efficacy: -99.4%

## CCOC(=O)c1c(CSc2ccccc2)n(C)c2cc(Br)c(O)c(CN(C)C)c12 [Arbidol]
HCT116 [1]
  AC50 cell viability: 14.8 µM
HCT116 [2]
  efficacy: -75.8%

## CC/1=C/C[C@]23O[C@@]2(C)CC[C@@H]4[C@H](OC(=O)C4=C)[C@@H]13 [Arglabin]
HCT116 [1]
  AC50 cell viability: 14.8 µM
HCT116 [2]
  efficacy: -79%

## O=C1CCc2ccc(OCCCCN3CCN(c4cccc(Cl)c4Cl)CC3)cc2N1 [Aripiprazole]
HCT116 [1]
  AC50 cell viability: 18.6 µM
HCT116 [2]
  efficacy: -93.8%

## C[C@@H]1CC[C@H]2[C@@H](C)C(=O)O[C@@H]3O[C@@]4(C)CC[C@@H]1[C@]32OO4 [Artemisinin]
HCT116 [1]
  AC50 cell viability: 0.0295 µM
HCT116 [2]
  efficacy: -30.7%

## C[C@H]1[C@H](O)O[C@@H]2O[C@@]3(C)CC[C@H]4[C@H](C)CC[C@@H]1[C@@]24OO3 [Artenimol]
HCT116 [1]
  AC50 cell viability: 2.63 µM
HCT116 [2]
  efficacy: -78.7%
